# Conditions: in the presence of the block copolymer
smiles,measurement,value
CC(=O)O[C@H]1C(=O)[C@@]2(C)[C@H]([C@H](OC(=O)c3ccccc3)[C@]3(O)C[C@H](OC(=O)[C@H](O)[C@@H](NC(=O)c4ccccc4)c4ccccc4)C(C)=C1C3(C)C)[C@]1(OC(C)=O)CO[C@@H]1C[C@@H]2O [paclitaxel],chemical stability in the aqueous polymer composition relative to aqueous solutions with organic co-solvents,substantially stabilized

# — patent US6589549B2, “Bioactive agent delivering system comprised of microparticles within a biodegradable to improve release profiles” (Macromed, Incorporated, priority 2000, dated 2003)
